Assay results reported in US20060057669A1, “Inactive transcription factor tif-ia and uses thereof” (priority 2002, published 2006).

Tested on: TIF-IA
Test: Two-dimensional tryptic phosphopeptide mapping of TIF-IA labeled in vivo in HEK293T cells
Type: cell-based, human
Details: serum-stimulated cells, 40 μM PD98059
Experimental: HEK293T cells were transfected with pcDNA3.1-FLAG-TIF-IA, starved for 12 hr and labeled for 4 hr with [^32P]orthophosphate. 30 min before harvesting, 10% dialyzed FCS was added and cells were incubated in the absence (left panel) or presence of 40 μM PD98059 (right panel). Immunopurified TIF-IA was subjected to two-dimensional phosphopeptide mapping.
(B) Tryptic peptide maps of TIF-IA phosphorylated in vivo. FLAG-tagged wild-type TIF-IA, TIF-IAS633A and TIF-IAS649A were expressed in HEK293T cells and labeled with [^32P]orthophosphate for 4 hr. TIF-IA was purified by immunoprecipitation and digested with trypsin. Phosphopeptides were separated on cellulose thin-layer plates and visualized by autoradiography. The sequence of the C-terminus of human TIF-IA (H.s.) and an alignment with the corresponding sequences from mouse (M.m.), Drosophila melanogaster (D.m.) and Saccharomyces pombe (S.p.) is shown above.
(A) Two-dimensional tryptic phosphopeptide maps of TIF-IA. HEK293T cells were transfected with FLAG-tagged TIF-IA and labeled for 2 hr with [^32P]orthophosphate in the absence (left) or presence (right) of 20 nM rapamycin. TIF-IA was immunopurified, digested with trypsin, separated on cellulose thin-layer plates and visualized by autoradiography.
(B) Tryptic phosphopeptide map of TIF-IAS44A phosphorylated in vivo. […]

COc1cccc(-c2cc(=O)c3ccccc3o2)c1N [PD98059]
labeling of TIF-IA phosphopeptide spots d, f and g: impaired | phosphorylation of TIF-IA phosphopeptide spots b and c: reduced
